Values quoted from earlier work, collected in patent US20110223150A1, “Neutraceutical-Based Topical Anxiolytic Agent and Method of Use” (priority 2009, published 2011).
Where two headings read alike, the source gives them in different places.

How the values were obtained:
[1] = system: spontaneously hypertensive rats (SHR); details: dose-dependent
mice = details: i.p. in mice
rats [2] = details: chronic administration of 50 mg/kg
rats [3] = system: rats

## NC(=O)CC[C@H](N)C(=O)O [L-glutamine]
[1]
  blood pressure effect: did not exhibit an anti-hypertensive effect

## NCC(CC(=O)O)c1ccccc1 (stereo not drawn) [Phenibut, beta-phenyl-gamma-aminobutyric acid]
mice
  LD50: 900 mg/kg
Rats [2]
  teratogenic effects: did not have teratogenic effects
Rats [3]; i.p. in rats
  LD50: 700 mg/kg
Rats [3]; rats, method of administration not given
  LD50: 1000 mg/kg

## gamma-ethylamino-L-glutamic acid [L-theanine]
[1]
  blood pressure effect: blood pressure lowering effect
Alpha brain waves; 50 or 200 mg of L-theanine
  time until alpha waves were observed (occipital and parietal regions): ≤ 40 min
Alpha brain waves; after ingestion
  time to sense of relaxation after ingestion: 30 to 40 min
Alpha brain waves; separate study, dose dependent, 200 mg significant over controls
  time after which intensity of alpha waves was detectable: 30 min
